Measured values from patent US20230255910A1, “USE OF A CINNAMEIN COMPOSITION FOR THE TREATMENT OF GLYCINE ENCEPHALOPATHY AND UREA CYCLE DISORDERS” (Rush University Medical Center, priority 2020, published 2023).

Legend:
[1] = tested on: lenti-GLDC shRNA-insulted mice; assay: Open field test of locomotor activities in lenti-GLDC shRNA-insulted mice; format: in vivo, C57/BL6 mice; conditions: 50 mg/kg body wt/d daily via gavage, after 10 d of treatment, FIG. 1A-D
Description: C57/BL6 mice (8-10 week old) received lentiviral GLDC shRNA (1×107 IFU/mouse in 100 μl HBSS) once via tail-vein injection. Therefore, control mice also received 100 μl HBSS via tail-vein. From 7 d after lenti-GLDC shRNA injection, mice were treated with cinnamein (50 mg/kg body wt/d) and cinnamic acid (50 mg/kg body wt/d) daily via gavage. After 10 d of treatment, locomotor activities were monitored by open field (FIG. 1A, heat map; FIG. 1B, distance traveled; FIG. 1C, velocity; FIG. 1D, center zone frequency). Results are mean+SEM of five mice per group. *p<0.05; **p<0.01; ***p<0.001.
C57/BL6 mice (8-10 week-old) received lentiviral GLDC shRNA (1×107 IFU/mouse in 100 μl Hank's Balanced Salt Solution or HBSS) once via tail-vein injection. The group of control mice received only 100 μl HBSS via tail-vein injection. Oral administration of cinnamein occurred from 7 d after lenti-GLDC shRNA injection. Mice were treated with 50 mg/kg body wt/d of cinnamein daily via gavage. Cinnamein (Sigma) was solubilized in 100 μl 0.5% methyl cellulose before gavage. […]
After 10 d of treatment with cinnamein and cinnamic acid, mice were monitored for locomotor activities by open field test. […] Each mouse was placed individually on the center of the arena and the performance was monitored by the live video tracking system.

[2] = tested on: lenti-GLDC shRNA-insulted mice; assay: Barnes maze, spatial learning and memory in lenti-GLDC shRNA-insulted mice; format: in vivo, C57/BL6 mice; conditions: 50 mg/kg body wt/d daily via gavage, after 10 d of treatment; for latency in reaching the target hole: FIG. 2B; for errors in reaching the target hole: FIG. 2C
Description: C57/BL6 mice (8-10 week old) received lentiviral GLDC shRNA (1×107 IFU/mouse in 100 μl HBSS) once via tail-vein injection. Therefore, control mice also received 100 μl HBSS via tail-vein. From 7 d after lenti-GLDC shRNA injection, mice were treated with cinnamein (50 mg/kg body wt/d) and cinnamic acid (50 mg/kg body wt/d) daily via gavage. After 10 d of treatment, spatial learning and memory was monitored by Barnes maze (A, heat map; B, latency; C, errors). Results are mean+SEM of five mice per group. *p<0.05; **p<0.01; ***p<0.001.
(§1) C57/BL6 mice (8-10 week-old) received lentiviral GLDC shRNA (1×107 IFU/mouse in 100 μl Hank's Balanced Salt Solution or HBSS) once via tail-vein injection. The group of control mice received only 100 μl HBSS via tail-vein injection. Oral administration of cinnamein occurred from 7 d after lenti-GLDC shRNA injection. Mice were treated with 50 mg/kg body wt/d of cinnamein daily via gavage. Cinnamein (Sigma) was solubilized in 100 μl 0.5% methyl cellulose before gavage. Therefore, one group of lenti-GLDC shRNA-insulted mice were also treated with 100 μl 0.5% methyl cellulose as vehicle control. For comparison, one group of lenti-GLDC shRNA-insulted mice were also treated with 50 mg/kg body wt/d of cinnamic acid daily via gavage.
Next, mice were monitored for spatial learning and memory by Barnes maze. Here, mice were trained for two consecutive days followed by examination on day three. During training, the overnight food-deprived mouse was placed in the middle of the maze in a 10 cm high cylindrical start chamber. After 10 s, the start chamber was removed to allow the mouse to move around the maze to find out the color food chips in the baited tunnel.

[3] = tested on: lenti-GLDC shRNA-insulted mice; assay: Level of glycine in serum and cortex of lenti-GLDC shRNA-insulted mice (fluorometric assay kit); format: in vivo, C57/BL6 mice; conditions: 50 mg/kg body wt/d daily via gavage, 14 d of treatment; for level of glycine in serum: FIG. 3A; for level of glycine in cortex: FIG. 3B
Description: C57/BL6 mice (8-10 week old) received lentiviral GLDC shRNA (1×107 IFU/mouse in 100 μl Hank's Balanced Salt Solution or HBSS) once via tail-vein injection. Therefore, control mice also received 100 μl HBSS via tail-vein. From 7 d after lenti-GLDC shRNA injection, mice were treated with cinnamein (50 mg/kg body wt/d) and cinnamic acid (50 mg/kg body wt/d) daily via gavage. After 14 d of treatment, the level of glycine was measured in serum (A) and cortex (B) by using a fluorometric assay kit (Biovision). Each mouse sample was run in triplicate. Results are mean+SEM of five mice per group. ***p<0.001.
as §1
(§2) On 14 d of treatment, mice were sacrificed, and level of glycine was measured in serum and brain.

[4] = Observation of side effects during drug treatment; format: in vivo, C57/BL6 mice; conditions: 50 mg/kg body wt/d daily via gavage, during drug treatment (14 d)
Description: as §1, §2

[5] = tested on: B6EiC3Sn a/A-Otc^spf-ash/J (Otc^spf-ash) mice; assay: Barnes maze, cognitive functions in OTC knockout mice (animal model of urea cycle disorders); format: in vivo; conditions: 50 mg/kg body weight/d orally via gavage for 15 days, FIG. 4A-C
Description: Eight-week old B6EiC3Sn a/A-Otc^spf-ash/J (Otc^spf-ash) mice were treated with cinnamein (50 mg/kg body weight/d) and cinnamic acid (50 mg/kg body weight/d) orally via gavage for 15 days followed by monitoring cognitive functions by Barnes maze (FIG. 4A, representative track plots summarizing the overall activity of mice on the apparatus recorded with a Noldus camera and visualized by Ethovision XT software; FIG. 4B, errors; FIG. 4C, latency). Results are mean+SEM of three mice per group. ***p<0.001.
Cognitive deficit is common in individuals with inherited urea cycle disorders (UCDs). […] See for example Qureshi et al., “Ornithine Transcarbamylase Deficiency in Mutant Mice I. Studies on the Characterization of Enzyme Defect and Suitability as Animal Model of Human Disease,” (1979) Pediat. Res. 13: pp 807-811; Hodges et al., “The spf^ash mouse: A missense mutation in the ornithine transcarbamylase gene also causes aberrant mRNA splicing,” (1989) Proc. Natl. Acad. Sci. USA 86: pp. 4142-4146. OTC knockout B6EiC3Sn a/A-Otc^spf-ash/J (Otc^spf-ash) mice were obtained from the Jackson Lab. Cinnamein was purchased from Sigma. Cinnamic acid was bought from Spectrum Chemicals.

Compound	locomotor activities (heat map, total distance travelled, velocity, center zone frequency) [1]	latency in reaching the target hole [2]	errors in reaching the target hole [2]	level of glycine in serum [3]	level of glycine in cortex [3]	side effects including hair loss, weight loss, diarrhea, or untoward infection [4]	cognitive functions (Barnes maze errors and latency) [5]
O=C(O)C=Cc1ccccc1 [cinnamic acid]	improved locomotor activities	significantly reduced	significantly reduced	significantly inhibited	significantly inhibited	No other side effects were observed	recovers cognitive functions
O=C(C=Cc1ccccc1)OCc1ccccc1 [cinnamein, 3-phenyl-2-propenoic acid phenylmethyl ester]	improved locomotor activities	significantly reduced	significantly reduced	significantly inhibited	significantly inhibited	No other side effects were observed	recovers cognitive functions
